Measured values reported in ChEMBL document CHEMBL4028801, “A multifactorial approach to hepatobiliary transporter assessment enables improved therapeutic compound development” (Toxicol Sci, 2013).
pIC50: −log10 of the molar value.

Tests used:
[1] = biological target: T1, ATP-binding cassette sub-family C member 4 (Homo sapiens, UniProt O15439); assay: Inhibition of human MRP4 overexpressed in Sf9 cell membrane vesicles assessed as uptake of [3H]-estradiol-17beta-D-glucuronide in presence of ATP and GSH measured after 20 mins by membrane vesicle transport assay; format: ADME, cell-based
T1 sequence (O15439 whole entry): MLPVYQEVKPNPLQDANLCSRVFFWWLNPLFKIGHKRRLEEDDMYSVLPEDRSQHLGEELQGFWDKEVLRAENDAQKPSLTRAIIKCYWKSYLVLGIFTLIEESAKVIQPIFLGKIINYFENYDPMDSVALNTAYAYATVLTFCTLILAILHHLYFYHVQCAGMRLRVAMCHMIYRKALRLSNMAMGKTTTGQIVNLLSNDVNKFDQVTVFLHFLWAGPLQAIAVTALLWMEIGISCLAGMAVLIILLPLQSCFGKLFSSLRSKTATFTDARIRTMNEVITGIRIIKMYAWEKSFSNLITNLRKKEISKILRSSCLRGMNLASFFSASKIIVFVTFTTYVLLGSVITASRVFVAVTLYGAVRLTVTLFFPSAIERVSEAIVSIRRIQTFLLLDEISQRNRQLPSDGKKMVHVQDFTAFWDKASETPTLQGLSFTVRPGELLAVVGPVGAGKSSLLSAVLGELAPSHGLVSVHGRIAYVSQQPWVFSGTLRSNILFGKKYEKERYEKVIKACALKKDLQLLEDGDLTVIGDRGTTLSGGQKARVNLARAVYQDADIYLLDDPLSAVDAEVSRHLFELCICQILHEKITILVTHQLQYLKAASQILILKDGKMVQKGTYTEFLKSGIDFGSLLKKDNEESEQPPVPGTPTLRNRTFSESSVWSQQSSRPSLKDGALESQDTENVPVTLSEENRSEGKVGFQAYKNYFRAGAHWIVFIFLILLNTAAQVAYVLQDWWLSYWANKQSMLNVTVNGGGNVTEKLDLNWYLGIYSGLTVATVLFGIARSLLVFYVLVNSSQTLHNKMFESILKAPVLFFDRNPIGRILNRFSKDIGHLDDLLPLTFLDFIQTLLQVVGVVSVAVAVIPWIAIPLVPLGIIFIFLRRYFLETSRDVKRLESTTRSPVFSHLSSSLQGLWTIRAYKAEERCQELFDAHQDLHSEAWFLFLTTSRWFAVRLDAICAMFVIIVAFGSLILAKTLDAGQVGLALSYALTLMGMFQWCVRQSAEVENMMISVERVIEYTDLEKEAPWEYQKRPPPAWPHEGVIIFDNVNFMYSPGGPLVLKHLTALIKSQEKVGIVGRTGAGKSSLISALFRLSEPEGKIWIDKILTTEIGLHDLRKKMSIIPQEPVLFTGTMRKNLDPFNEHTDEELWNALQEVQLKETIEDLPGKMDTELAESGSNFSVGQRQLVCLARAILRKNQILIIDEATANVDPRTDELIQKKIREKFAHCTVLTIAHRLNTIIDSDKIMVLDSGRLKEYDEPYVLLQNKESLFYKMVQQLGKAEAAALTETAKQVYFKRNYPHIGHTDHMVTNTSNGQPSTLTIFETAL

[2] = biological target: Bile salt export pump (Homo sapiens, UniProt O95342); assay: Inhibition of human BSEP overexpressed in Sf9 cell membrane vesicles assessed as uptake of [3H]-taurocholate in presence of ATP measured after 15 to 20 mins by membrane vesicle transport assay; format: ADME, cell-based
[3] = Ratio of drug concentration at steady state in human at 2 to 8 mg, po QD after 24 hrs to IC50 for human BSEP overexpressed in Sf9 insect cells; format: ADME, organism-based; details: in vivo
[4] = Ratio of drug concentration at steady state in human at 2 to 8 mg, po QD after 24 hrs to IC50 for human MRP4 overexpressed in Sf9 insect cells; format: ADME, organism-based; details: in vivo
[5] = AUC in human at 2 to 8 mg, po QD after 24 hrs; format: ADME, organism-based; details: in vivo
[6] = biological target: ATP-binding cassette sub-family C member 3 (Homo sapiens, UniProt O15438); assay: Inhibition of human MRP3 overexpressed in Sf9 insect cell membrane vesicles assessed as uptake of [3H]-estradiol-17beta-D-glucuronide in presence of ATP and GSH measured after 10 mins by membrane vesicle transport assay; format: ADME, cell-based
[7] = Drug concentration at steady state in human at 2 to 8 mg, po QD after 24 hrs; format: ADME, organism-based; details: in vivo, read-out: Css
[8] = Ratio of drug concentration at steady state in human at 300 to 600 mg, po QD after 24 hrs to IC50 for human MRP4 overexpressed in Sf9 insect cells; format: ADME, organism-based; details: in vivo
[9] = AUC in human at 300 to 600 mg, po QD after 24 hrs; format: ADME, organism-based; details: in vivo
[10] = Drug concentration at steady state in human at 300 to 600 mg, po QD after 24 hrs; format: ADME, organism-based; details: in vivo, read-out: Css
[11] = Ratio of drug concentration at steady state in human at 300 to 600 mg, po QD after 24 hrs to IC50 for human BSEP overexpressed in Sf9 insect cells; format: ADME, organism-based; details: in vivo
[12] = biological target: ATP-binding cassette sub-family C member 2 (Homo sapiens, UniProt Q92887); assay: Inhibition of human MRP2 overexpressed in Sf9 cell membrane vesicles assessed as uptake of [3H]-estradiol-17beta-D-glucuronide in presence of ATP and GSH measured after 20 mins by membrane vesicle transport assay
[13] = Ratio of drug concentration at steady state in human at 300 mg, po QD after 24 hrs to IC50 for human BSEP overexpressed in Sf9 insect cells; format: ADME, organism-based; details: in vivo
[14] = Drug concentration at steady state in human at 300 mg, po QD after 24 hrs; format: ADME, organism-based; details: in vivo, read-out: Css
[15] = Ratio of drug concentration at steady state in human at 300 mg, po QD after 24 hrs to IC50 for human MRP4 overexpressed in Sf9 insect cells; format: ADME, organism-based; details: in vivo
[16] = AUC in human at 300 mg, po QD after 24 hrs; format: ADME, organism-based; parameters: time < 24 hr, dose 300 mg, route oral; details: in vivo
[17] = AUC in human at 60 to 100 mg/m2, iv via infusion for 1 hr every 3 weeks measured after 1 hr; format: ADME, organism-based; parameters: time < 1 hr, route intravenous; details: in vivo
[18] = Ratio of drug concentration at steady state in human at 60 to 100 mg/m2, iv via infusion for 1 hr every 3 weeks measured after 1 hr to IC50 for human BSEP overexpressed in Sf9 insect cells; format: ADME, organism-based
[19] = Drug concentration at steady state in human at 60 to 100 mg/m2, iv via infusion for 1 hr every 3 weeks measured after 1 hr; format: ADME, organism-based; details: in vivo, read-out: Css
[20] = Ratio of drug concentration at steady state in human at 100 to 300 mg, po QD after 24 hrs to IC50 for human MRP3 overexpressed in Sf9 insect cells; format: ADME, organism-based; details: in vivo
[21] = Ratio of drug concentration at steady state in human at 100 to 300 mg, po QD after 24 hrs to IC50 for human MRP2 overexpressed in Sf9 insect cells; format: ADME, organism-based; details: in vivo
[22] = Ratio of drug concentration at steady state in human at 100 to 300 mg, po QD after 24 hrs to IC50 for human BSEP overexpressed in Sf9 insect cells; format: ADME, organism-based; details: in vivo
[23] = AUC in human at 100 to 300 mg, po QD after 24 hrs; format: ADME, organism-based; details: in vivo
[24] = Drug concentration at steady state in human at 100 to 300 mg, po QD after 24 hrs; format: ADME, organism-based; details: in vivo, read-out: Css
[25] = AUC in human at 100 to 200 mg, po QD after 24 hrs; format: ADME, organism-based; details: in vivo
[26] = Ratio of drug concentration at steady state in human at 100 to 200 mg, po QD after 24 hrs to IC50 for human MRP2 overexpressed in Sf9 insect cells; format: ADME, organism-based; details: in vivo
[27] = Ratio of drug concentration at steady state in human at 100 to 200 mg, po QD after 24 hrs to IC50 for human MRP4 overexpressed in Sf9 insect cells; format: ADME, organism-based; details: in vivo
[28] = Drug concentration at steady state in human at 100 to 200 mg, po QD after 24 hrs; format: ADME, organism-based; details: in vivo, read-out: Css
[29] = Ratio of drug concentration at steady state in human at 100 to 200 mg, po QD after 24 hrs to IC50 for human BSEP overexpressed in Sf9 insect cells; format: ADME, organism-based; details: in vivo

Sequence of ATP-binding cassette sub-family C member 2 (Q92887 whole entry): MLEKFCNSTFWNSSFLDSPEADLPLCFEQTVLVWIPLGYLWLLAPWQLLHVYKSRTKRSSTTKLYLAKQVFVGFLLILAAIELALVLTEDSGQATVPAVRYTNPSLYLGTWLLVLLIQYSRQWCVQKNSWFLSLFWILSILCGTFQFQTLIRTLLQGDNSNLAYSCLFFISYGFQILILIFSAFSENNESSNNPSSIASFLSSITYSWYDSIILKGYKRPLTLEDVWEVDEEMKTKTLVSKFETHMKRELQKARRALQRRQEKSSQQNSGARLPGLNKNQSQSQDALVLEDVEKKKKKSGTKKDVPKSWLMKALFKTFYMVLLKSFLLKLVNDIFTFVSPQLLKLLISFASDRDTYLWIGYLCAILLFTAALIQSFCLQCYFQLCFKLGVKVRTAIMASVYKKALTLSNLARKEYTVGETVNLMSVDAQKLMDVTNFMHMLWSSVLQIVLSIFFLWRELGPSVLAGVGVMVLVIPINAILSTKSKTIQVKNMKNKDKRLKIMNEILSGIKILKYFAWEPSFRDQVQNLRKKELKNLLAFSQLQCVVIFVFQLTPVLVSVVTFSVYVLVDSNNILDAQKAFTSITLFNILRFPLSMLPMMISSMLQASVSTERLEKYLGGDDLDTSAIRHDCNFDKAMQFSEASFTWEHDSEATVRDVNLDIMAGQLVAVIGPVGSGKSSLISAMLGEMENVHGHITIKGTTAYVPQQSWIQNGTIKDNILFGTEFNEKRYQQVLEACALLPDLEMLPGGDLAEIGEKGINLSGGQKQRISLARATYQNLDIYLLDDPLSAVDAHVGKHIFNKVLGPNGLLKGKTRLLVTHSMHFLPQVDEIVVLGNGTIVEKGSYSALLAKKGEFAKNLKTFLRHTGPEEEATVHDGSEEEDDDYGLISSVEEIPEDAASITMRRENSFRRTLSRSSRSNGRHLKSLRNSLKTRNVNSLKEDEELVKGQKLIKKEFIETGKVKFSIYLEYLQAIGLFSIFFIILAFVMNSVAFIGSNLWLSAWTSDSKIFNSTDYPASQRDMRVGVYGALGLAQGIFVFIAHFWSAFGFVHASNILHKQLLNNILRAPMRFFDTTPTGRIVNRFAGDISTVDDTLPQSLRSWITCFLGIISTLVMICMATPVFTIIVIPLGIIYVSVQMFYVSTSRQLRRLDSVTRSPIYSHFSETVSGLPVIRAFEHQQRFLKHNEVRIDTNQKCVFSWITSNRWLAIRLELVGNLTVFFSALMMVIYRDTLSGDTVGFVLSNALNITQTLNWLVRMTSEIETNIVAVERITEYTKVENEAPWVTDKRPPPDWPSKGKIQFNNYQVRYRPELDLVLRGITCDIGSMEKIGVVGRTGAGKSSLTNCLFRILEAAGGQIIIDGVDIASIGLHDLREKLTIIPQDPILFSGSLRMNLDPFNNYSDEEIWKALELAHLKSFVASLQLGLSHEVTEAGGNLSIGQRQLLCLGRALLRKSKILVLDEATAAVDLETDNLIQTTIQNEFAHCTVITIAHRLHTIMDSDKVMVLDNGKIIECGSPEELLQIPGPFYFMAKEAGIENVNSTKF
Sequence of ATP-binding cassette sub-family C member 3 (O15438 whole entry): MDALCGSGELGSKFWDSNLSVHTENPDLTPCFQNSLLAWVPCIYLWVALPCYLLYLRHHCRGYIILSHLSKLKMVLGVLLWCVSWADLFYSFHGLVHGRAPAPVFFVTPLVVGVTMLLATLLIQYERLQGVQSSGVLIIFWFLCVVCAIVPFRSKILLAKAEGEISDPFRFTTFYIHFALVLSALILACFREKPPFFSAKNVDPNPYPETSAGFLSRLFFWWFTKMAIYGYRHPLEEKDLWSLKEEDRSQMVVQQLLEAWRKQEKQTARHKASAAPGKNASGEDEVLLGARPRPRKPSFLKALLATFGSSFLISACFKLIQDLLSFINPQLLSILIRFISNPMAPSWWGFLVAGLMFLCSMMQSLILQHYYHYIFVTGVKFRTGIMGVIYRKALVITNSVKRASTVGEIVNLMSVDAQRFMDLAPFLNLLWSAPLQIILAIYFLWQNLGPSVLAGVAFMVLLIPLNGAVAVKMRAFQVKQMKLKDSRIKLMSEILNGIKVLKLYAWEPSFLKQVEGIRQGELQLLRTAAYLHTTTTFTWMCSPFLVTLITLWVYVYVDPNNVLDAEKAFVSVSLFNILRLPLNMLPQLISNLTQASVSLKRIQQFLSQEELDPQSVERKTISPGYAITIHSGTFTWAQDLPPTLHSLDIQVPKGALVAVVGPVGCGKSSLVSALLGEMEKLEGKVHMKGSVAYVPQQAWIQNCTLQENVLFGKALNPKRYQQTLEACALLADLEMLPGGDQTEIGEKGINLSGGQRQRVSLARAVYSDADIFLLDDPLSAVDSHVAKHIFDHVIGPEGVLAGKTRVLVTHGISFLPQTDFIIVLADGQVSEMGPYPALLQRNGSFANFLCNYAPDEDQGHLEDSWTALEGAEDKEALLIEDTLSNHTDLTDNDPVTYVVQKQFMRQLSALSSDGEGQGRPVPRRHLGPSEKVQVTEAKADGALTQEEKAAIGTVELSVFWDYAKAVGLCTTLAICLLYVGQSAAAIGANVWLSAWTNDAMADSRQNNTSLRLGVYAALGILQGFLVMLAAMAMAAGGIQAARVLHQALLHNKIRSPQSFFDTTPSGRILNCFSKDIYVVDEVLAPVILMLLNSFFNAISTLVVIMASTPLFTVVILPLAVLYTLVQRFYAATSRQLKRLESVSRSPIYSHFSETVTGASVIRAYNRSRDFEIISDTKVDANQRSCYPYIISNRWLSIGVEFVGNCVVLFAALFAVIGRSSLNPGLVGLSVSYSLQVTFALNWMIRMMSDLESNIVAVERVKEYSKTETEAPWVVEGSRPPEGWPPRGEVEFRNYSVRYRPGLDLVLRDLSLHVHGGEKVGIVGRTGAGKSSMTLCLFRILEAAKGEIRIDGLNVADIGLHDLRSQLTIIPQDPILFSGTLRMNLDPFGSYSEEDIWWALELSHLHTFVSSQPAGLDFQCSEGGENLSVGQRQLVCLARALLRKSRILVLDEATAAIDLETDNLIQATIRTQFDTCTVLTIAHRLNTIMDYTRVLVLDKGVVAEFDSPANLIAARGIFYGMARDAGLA
Sequence of Bile salt export pump (O95342 whole entry): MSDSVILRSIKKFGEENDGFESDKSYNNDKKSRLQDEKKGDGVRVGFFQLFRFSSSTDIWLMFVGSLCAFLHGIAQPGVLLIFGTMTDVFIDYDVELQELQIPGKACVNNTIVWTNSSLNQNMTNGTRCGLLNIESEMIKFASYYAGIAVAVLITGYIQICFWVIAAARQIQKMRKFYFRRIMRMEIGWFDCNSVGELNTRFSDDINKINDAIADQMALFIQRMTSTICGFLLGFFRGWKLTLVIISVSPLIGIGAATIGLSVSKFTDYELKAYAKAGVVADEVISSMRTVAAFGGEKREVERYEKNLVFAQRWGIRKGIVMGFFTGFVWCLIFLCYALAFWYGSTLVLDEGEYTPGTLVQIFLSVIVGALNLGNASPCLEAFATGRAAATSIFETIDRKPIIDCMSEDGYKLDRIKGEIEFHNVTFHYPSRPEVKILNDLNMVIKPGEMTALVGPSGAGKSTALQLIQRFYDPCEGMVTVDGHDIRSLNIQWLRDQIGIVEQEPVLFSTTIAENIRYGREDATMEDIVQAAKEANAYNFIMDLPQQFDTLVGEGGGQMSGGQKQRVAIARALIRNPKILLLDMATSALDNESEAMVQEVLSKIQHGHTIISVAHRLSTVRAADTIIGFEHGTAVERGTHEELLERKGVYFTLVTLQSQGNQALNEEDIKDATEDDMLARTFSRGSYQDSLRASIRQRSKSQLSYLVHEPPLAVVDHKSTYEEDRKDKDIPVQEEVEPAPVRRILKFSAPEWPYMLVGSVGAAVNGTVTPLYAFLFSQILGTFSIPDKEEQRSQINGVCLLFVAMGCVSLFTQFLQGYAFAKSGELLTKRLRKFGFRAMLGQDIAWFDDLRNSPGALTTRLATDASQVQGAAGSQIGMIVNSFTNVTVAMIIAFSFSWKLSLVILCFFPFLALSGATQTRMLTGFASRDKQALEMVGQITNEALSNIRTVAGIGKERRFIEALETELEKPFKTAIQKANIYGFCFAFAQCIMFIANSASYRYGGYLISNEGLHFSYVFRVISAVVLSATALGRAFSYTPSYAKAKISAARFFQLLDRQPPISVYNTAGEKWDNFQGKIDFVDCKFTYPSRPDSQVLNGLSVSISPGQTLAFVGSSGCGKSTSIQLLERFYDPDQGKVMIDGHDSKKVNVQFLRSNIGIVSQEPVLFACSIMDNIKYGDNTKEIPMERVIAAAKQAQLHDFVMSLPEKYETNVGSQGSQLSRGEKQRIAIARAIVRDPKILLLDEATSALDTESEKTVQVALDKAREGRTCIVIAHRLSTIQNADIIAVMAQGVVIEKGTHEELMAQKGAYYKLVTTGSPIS

Q: With CN(CCOc1ccc(CC2SC(=O)NC2=O)cc1)c1ccccn1 (stereo not given) [ROSIGLITAZONE] as the compound, how does the pIC50 [1] read?
A: Its pIC50 is 4.68.

Q: And the pIC50 [2]?
A: Its pIC50 is 5.55.

Q: And the Ratio [3]?
A: The Ratio was 0.119.

Q: What about the Ratio [4] of the same compound?
A: The Ratio was 0.016.

Q: What about the AUC at 24 h [5] of the same compound?
A: Its AUC at 24 h is 8.02 µM·h.

Q: What about the pIC50 [6] of the same compound?
A: Its pIC50 is less than 3.88.

Q: What about the concentration at 24 h [7] of the same compound?
A: The concentration at 24 h was 334 nM.

Q: With CCc1nn(CCCN2CCN(c3cccc(Cl)c3)CC2)c(=O)n1CCOc1ccccc1 [NEFAZODONE] as the compound, how does the pIC50 [1] read?
A: Its pIC50 is 4.15.

Q: And the Ratio [8]?
A: Its Ratio is 0.009.

Q: And the AUC at 24 h [9]?
A: Its AUC at 24 h is 14.5 µM·h.

Q: And the concentration at 24 h [10]?
A: The concentration at 24 h was 604 nM.

Q: What about the Ratio [11] of the same compound?
A: Its Ratio is 0.099.

Q: What about the pIC50 [12] of the same compound?
A: Its pIC50 is less than 3.88.

Q: And the pIC50 [6]?
A: The pIC50 was less than 3.88.

Q: With O=C(Nc1cccc2c(=O)cc(-c3nnn[nH]3)oc12)c1ccc(OCCCCc2ccccc2)cc1 as the compound, how does the pIC50 [1] read?
A: The pIC50 was 5.57.

Q: And the Ratio [13]?
A: Its Ratio is 0.122.

Q: And the concentration at 24 h [14]?
A: The concentration at 24 h was 363 nM.

Q: What about the Ratio [15] of the same compound?
A: The Ratio was 0.134.

Q: What about the AUC at 24 h [16] of the same compound?
A: Its AUC at 24 h is 8.71 µM·h.

Q: And the pIC50 [2]?
A: The pIC50 was 5.53.

Q: What about the pIC50 [12] of the same compound?
A: The pIC50 was less than 3.88.

Q: What about the pIC50 [6] of the same compound?
A: Its pIC50 is less than 3.88.

Q: Which results are given for CC(=O)O[C@@]12CO[C@@H]1C[C@H](O)[C@@]1(C)C(=O)[C@H](O)C3=C(C)[C@@H](OC(=O)[C@H](O)[C@@H](NC(=O)OC(C)(C)C)c4ccccc4)C[C@@](O)([C@@H](OC(=O)c4ccccc4)[C@H]21)C3(C)C [DOCETAXEL ANHYDROUS]?
A: pIC50 [1]: < 3.88; AUC at 1 h [17]: 6.51 µM·h; Ratio [18]: 0.16; pIC50 [2]: 4.39; concentration at 1 h [19]: 6520 nM; pIC50 [12]: < 3.88; pIC50 [6]: < 3.88

Q: Which results are given for Cc1cc2c(cc1CC(=O)c1sccc1S(=O)(=O)Nc1onc(C)c1Cl)OCO2 [SITAXENTAN]?
A: Ratio [20]: 0.07; Ratio [21]: 0.044; pIC50 [1]: 4.55; Ratio [22]: 0.158; AUC at 24 h [23]: 47.9 µM·h; pIC50 [2]: 4.90; concentration at 24 h [24]: 2000 nM; pIC50 [6]: 4.34

Q: What does the source list for CCc1oc2ccccc2c1C(=O)c1cc(Br)c(O)c(Br)c1 [BENZBROMARONE]?
A: pIC50 [1]: 4.77; AUC at 24 h [25]: 45 µM·h; Ratio [26]: 0.045; Ratio [27]: 0.11; concentration at 24 h [28]: 1880 nM; pIC50 [12]: 4.38; pIC50 [6]: < 3.88; Ratio [29]: 0.107
